Experimental data reported in US20060045953A1 (priority 2004, published 2006).

molecular target: T1, hT1R1/hT1R3 umami receptor (Homo sapiens, UniProt Q7RTX0+Q7RTX1); test: In vitro hT1R1/hT1R3 umami taste receptor activation assay (FLIPR, dose response); type: cell-based; conditions: read-out: EC50 for activation of a hT1R1/hT1R3 umami receptor expressed in an HEK293 cell line
T1 construct: expressed in transfected cells; host or cells: HEK293 derivative stably expressing Gα15, clone I-17, expression induced with mifepristone
T1 sequence (Q7RTX1 21-841): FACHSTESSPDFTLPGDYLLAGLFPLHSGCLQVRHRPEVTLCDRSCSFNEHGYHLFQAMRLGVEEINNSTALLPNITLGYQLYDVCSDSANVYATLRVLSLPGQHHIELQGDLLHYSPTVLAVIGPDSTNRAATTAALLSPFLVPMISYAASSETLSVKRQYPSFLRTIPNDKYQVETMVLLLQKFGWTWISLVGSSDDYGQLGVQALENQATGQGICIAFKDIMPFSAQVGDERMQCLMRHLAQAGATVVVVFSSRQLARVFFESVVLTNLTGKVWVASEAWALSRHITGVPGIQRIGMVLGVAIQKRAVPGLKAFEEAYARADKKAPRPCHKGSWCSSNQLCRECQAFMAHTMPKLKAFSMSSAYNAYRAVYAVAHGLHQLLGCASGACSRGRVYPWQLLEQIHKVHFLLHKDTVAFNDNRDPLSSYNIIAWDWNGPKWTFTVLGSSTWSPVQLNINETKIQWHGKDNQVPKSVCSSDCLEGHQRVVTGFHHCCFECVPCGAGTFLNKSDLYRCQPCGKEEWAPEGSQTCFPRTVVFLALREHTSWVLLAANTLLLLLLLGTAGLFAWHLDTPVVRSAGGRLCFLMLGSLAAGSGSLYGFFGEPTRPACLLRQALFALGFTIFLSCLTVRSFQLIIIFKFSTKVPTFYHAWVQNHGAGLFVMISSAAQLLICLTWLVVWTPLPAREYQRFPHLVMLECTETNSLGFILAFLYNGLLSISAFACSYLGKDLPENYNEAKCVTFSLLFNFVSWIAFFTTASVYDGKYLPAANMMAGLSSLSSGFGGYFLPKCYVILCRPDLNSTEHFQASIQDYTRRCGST
T1 sequence (Q7RTX0 21-852): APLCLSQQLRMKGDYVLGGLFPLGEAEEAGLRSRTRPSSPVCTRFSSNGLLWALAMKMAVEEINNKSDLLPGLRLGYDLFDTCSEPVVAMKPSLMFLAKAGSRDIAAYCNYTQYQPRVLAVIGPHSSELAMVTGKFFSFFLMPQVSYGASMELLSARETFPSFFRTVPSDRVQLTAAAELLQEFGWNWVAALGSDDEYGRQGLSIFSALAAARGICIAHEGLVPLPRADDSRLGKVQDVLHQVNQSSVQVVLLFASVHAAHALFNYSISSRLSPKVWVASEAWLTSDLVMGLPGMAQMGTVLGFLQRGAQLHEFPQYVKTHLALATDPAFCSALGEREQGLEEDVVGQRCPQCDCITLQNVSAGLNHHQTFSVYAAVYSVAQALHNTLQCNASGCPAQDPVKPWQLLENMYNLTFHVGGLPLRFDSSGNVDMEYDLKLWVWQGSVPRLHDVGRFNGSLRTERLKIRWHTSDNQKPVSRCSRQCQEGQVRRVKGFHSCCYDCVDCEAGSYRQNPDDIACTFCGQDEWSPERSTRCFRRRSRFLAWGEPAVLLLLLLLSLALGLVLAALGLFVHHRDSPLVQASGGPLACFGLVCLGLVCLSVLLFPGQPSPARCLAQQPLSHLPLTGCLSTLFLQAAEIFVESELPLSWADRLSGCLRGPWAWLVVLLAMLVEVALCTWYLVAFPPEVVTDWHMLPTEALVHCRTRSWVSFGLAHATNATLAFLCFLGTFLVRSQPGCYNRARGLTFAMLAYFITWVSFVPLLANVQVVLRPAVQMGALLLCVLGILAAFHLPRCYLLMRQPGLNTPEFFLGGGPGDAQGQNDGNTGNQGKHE
Source text: In order to identify new savory flavoring agents and enhancers, including compounds with savory agonist and enhancer activities (dual activity), the compounds of Formula (I) were screened in primary assays and secondary assays including compound dose response and enhancement assay. In a primary assay for potential ability to modulate umami taste, amide compounds of Formula (I) that can be either savory flavoring agents in their own right or flavor enhancers of MSG are identified and scores of their activities are given as percentage of the maximum MSG intensity (%). In compound dose response, an EC50 is calculated to reflect the potency of the compound as a savory agonist or enhancer.
An HEK293 cell line derivative (See e.g., Chandrashekar, et al., Cell (2000) 100: 703-711) which stably expresses Gα15 and hT1R1/hT1R3 under an inducible promoter (see WO 03/001876 A2) was used to identify compounds with savory tasting properties.
For dose-responses analysis, stimuli were presented in duplicates at 10 different concentrations ranging from 1.5 nM to 30 μM. Activities were normalized to the response obtained with 60 mM monosodium glutamate, a concentration that elicits maximum receptor response. […] Identical results were obtained when analyzing the dose-response data using commercially available software for non-linear regression analysis such as GraphPad PRISM (San Diego, Calif.).

Row | SMILES | EC50 [nM]
1 | CCCC(CCC)NC(=O)/C=C/c1cccs1 [Example 77, (E)-N-(heptan-4-yl)-3-(thiophen-2-yl)acrylamide] | 440
2 | CCCCC/C=C/C(=O)N[C@H](CC(C)C)C(=O)OC [Example 78, (R,E)-methyl 4-methyl-2-oct-2-enamidopentanoate] | 920
3 | CCCC(CC(C)C)NC(=O)/C=C/c1ccc(OC)cc1 (centres unmarked) [Example 79, 3-(4-Methoxy-phenyl)-N-(3-methyl-1-propyl-butyl)-acrylamide] | 1840
4 | COC[C@@H](CC(C)C)NC(=O)/C=C/c1ccc(OC)cc1 [Example 80, N-(1-Methoxymethyl-3-methyl-butyl)-3-(4-methoxy-phenyl)-acrylamide] | 900
5 | COc1ccc(/C=C/C(=O)N[C@@H](CO)Cc2ccccc2)cc1 [Example 81, N-(1-Benzyl-2-hydroxy-ethyl)-3-(4-methoxy-phenyl)-acrylamide] | 1100
6 | CCOc1ccc(/C=C/C(=O)NC(CC)CC)cc1 [Example 82, 3-(4-Ethoxy-phenyl)-N-(1-ethyl-propyl)-acrylamide] | 1350
7 | COC(=O)[C@@H](CC(C)C)NC(=O)/C=C/c1cccs1 [Example 83, 4-Methyl-2-(3-thiophen-2-yl-acryloylamino)-pentanoic acid methyl ester] | 590
8 | CC(C)/C=C/C(=O)NC1CCCc2ccccc21 (centres unmarked) [Example 84, 4-Methyl-pent-2-enoic acid (1,2,3,4-tetrahydro-naphthalen-1-yl)-amide] | 1500
9 | CCCC(CCC)NC(=O)/C=C/c1ccccc1F [Example 85, 3-(2-Fluoro-phenyl)-N-(1-propyl-butyl)-acrylamide] | 160
10 | CCCC(CCC)NC(=O)/C=C/c1ccccc1OC [Example 86, 3-(2-Methoxy-phenyl)-N-(1-propyl-butyl)-acrylamide] | 900
11 | CCCC(CCC)NC(=O)/C=C/c1ccc(OC)c(OC)c1 [Example 87, 3-(3,4-Dimethoxy-phenyl)-N-(1-propyl-butyl)-acrylamide] | 970
12 | COc1ccccc1/C=C/C(=O)NC1CCCCC1C (centres unmarked) [Example 89, 3-(2-Methoxy-phenyl)-N-(2-methyl-cyclohexyl)-acrylamide] | 3400
13 | CCCC(CCC)NC(=O)c1ccc2occc2c1 [Example 90, N-(heptan-4-yl)benzofuran-5-carboxamide] | 1190
14 | CCCC(CCC)NC(=O)c1ccc(C)c(C)n1 [Example 91, N-(heptan-4-yl)-5,6-dimethylpicolinamide] | 2800
15 | CCCC(CCC)NC(=O)c1ccc(N(CC)CC)cc1 [Example 92, 4-(diethylamino)-N-(heptan-4-yl)benzamide] | 7600
16 | COC(=O)[C@@H](CC(C)C)NC(=O)c1cc(OC)nc(OC)c1 [Example 93, (R)-methyl 2-(2,6-dimethoxyisonicotinamido)-4-methylpentanoate] | 1910
17 | CCCC(CCC)NC(=O)c1ccc(OC)nc1 [Example 94, N-(heptan-4-yl)-6-methoxynicotinamide] | 2660
18 | CCCC(CCC)NC(=O)c1cnc(C)c(C)n1 [Example 95, 5,6-dimethylpyrazine-2-carboxylic acid (1-propylbutyl)amide] | 1010
19 | CCCC(CCC)NC(=O)c1ccc(C)nc1Cl [Example 96, 2-chloro-N-(heptan-4-yl)-6-methylnicotinamide] | 3900

Row | SMILES | EC50 [nM]
20 | CCCC(CCC)NC(=O)c1ccc(OC)cc1C#N [Example 97, 2-cyano-N-(heptan-4-yl)-4-methoxybenzamide] | 1390
21 | CCCC(CCC)NC(=O)c1cc(C)nn1C [Example 99, N-(heptan-4-yl)-1,3-dimethyl-1H-pyrazole-5-carboxamide] | 7800
22 | CCCC(CCC)NC(=O)c1csc(C)n1 [Example 100, N-(heptan-4-yl)-2-methylthiazole-4-carboxamide] | 7200
23 | CCCC(CCC)NC(=O)c1ccc2ncccc2c1 [Example 101, N-(heptan-4-yl)quinoline-6-carboxamide] | 3200
24 | CCCC(CCC)NC(=O)c1cnc2ccccc2c1 [Example 102, N-(heptan-4-yl)quinoline-3-carboxamide] | 15800
25 | CCCC(CCC)NC(=O)c1nccc2ccccc12 [Example 103, N-(heptan-4-yl)isoquinoline-1-carboxamide] | 14200
26 | O=C(NCc1ccc(OC(F)(F)F)cc1)c1cccs1 [Example 105, N-(4-(trifluoromethoxy)benzyl)thiophene-2-carboxamide] | 2400
27 | COc1ccc(C(=O)NCCSCc2ccco2)cc1C [Example 106, N-(2-(furan-2-ylmethylthio)ethyl)-4-methoxy-3-methylbenzamide] | 5600
28 | O=C(NCc1ccc(OC(F)(F)F)cc1)c1ccsc1 [Example 107, Thiophene-3-carboxylic acid 4-trifluoromethoxy-benzylamide] | 2200
29 | COc1ccc(CNC(=O)c2sccc2C)c(OC)c1 [Example 108, 3-Methyl-thiophene-2-carboxylic acid 2,4-dimethoxy-benzylamide] | 5600
30 | COc1ccc(CNC(=O)c2ccc(-c3ccccn3)s2)c(OC)c1 [Example 109, 5-Pyridin-2-yl-thiophene-2-carboxylic acid 2,4-dimethoxy-benzylamide] | 2860
31 | COc1ccc(CNC(=O)c2ccnn2C)c(OC)c1 [Example 110, 2-Methyl-2H-pyrazole-3-carboxylic acid 2,4-dimethoxy-benzylamide] | 6000
32 | Cc1cc(C(=O)NC(C)CCc2ccccc2)ccc1O (centres unmarked) [Example 111, 4-Hydroxy-3-methyl-N-(1-methyl-3-phenyl-propyl)-benzamide] | 2700
33 | CCc1ccc(CCNC(=O)c2ccc3c(c2)OCO3)cc1 [Example 112, Benzo[1,3]dioxole-5-carboxylic acid [2-(4-ethyl-phenyl)-ethyl]-amide] | 3860
34 | CCCC(NC(=O)c1ccc(OC)c(C)c1)c1ccccc1 (centres unmarked) [Example 113, 4-Methoxy-3-methyl-N-(1-phenyl-butyl)-benzamide] | 2500
35 | CCCC(NC(=O)c1ccc(OC)c(C)c1)c1ccccn1 (centres unmarked) [Example 114, 4-Methoxy-3-methyl-N-(1-pyridin-2-yl-butyl)-benzamide] | 1540
36 | CCCC(NC(=O)c1ccc2c(c1)OCO2)c1ccc(OC)cc1 (centres unmarked) [Example 115, Benzo[1,3]dioxole-5-carboxylic acid [1-(4-methoxy-phenyl)-butyl]-amide] | 4120
37 | CCCC(NC(=O)c1ccc(OCC)c(C)c1)c1ccc(OC)cc1 (centres unmarked) [Example 116, 4-Ethoxy-N-[1-(4-methoxy-phenyl)-butyl]-3-methyl-benzamide] | 3900
38 | COc1ccc([C@@H](C)NC(=O)c2ccc(OC)c(C)c2)cc1 [Example 117, 4-Methoxy-N-[1-(R)-(4-methoxy-phenyl)-ethyl]-3-methyl-benzamide] | 2800
